Values of other authors as cited in patent US20250261634A1, “LIQUID HERBICIDAL COMPOSITIONS” (priority 2021, published 2025).

Test system: weeds
Settings: in vivo

Question: With `CP(=O)(O)CC[C@H](N)C(=O)O` (single isomer, unassigned) [L-isomer] as the molecule, how does the “herbicidal activity relative to the racemate” value read?
Answer: twice that of the racemate
